Assay results reported in US9695155B2, “Herbicidal substituted pyrimidinyloxy benzene compounds” (E. I. DU PONT DE NEMOURS AND COMPANY, priority 2013, dated 2017).

Legend:
Test in all cases: Test F preemergence
Settings in all cases: 21 days, scale 0 to 100
surinam grass = type: in vivo, Brachiaria decumbens
Source text: (§1) Seeds of plant species selected from bermudagrass (Cynodon dactylon), surinam grass (Brachiaria decumbens), large (Lg) crabgrass (Digitaria sanguinalis), crabgrass, naked (naked crabgrass, Digitaria nuda), foxtail, green (green foxtail, Setaria viridis), johnsongrass (Sorghum halepense), kochia (Kochia scoparia), morningglory (pitted morningglory, Ipomoea lacunosa), nutsedge, purple (purple nutsedge, Cyperus rotundus), ragweed (common ragweed, Ambrosia elatior), mustard, black (black mustard, Brassica nigra), guineagrass (Panicum maximum), dallisgrass (Paspalum dilatatum), barnyardgrass (Echinochloa crus-galli), sandbur (southern sandbur, Cenchrus echinatus), sowthistle (common sowthistle, Sonchus oleraceous), Italian ryegrass (Lolium multiflorum), signalgrass (broadleaf signalgrass, Brachiaria platyphylla), dayflower (Virginia (VA) dayflower, Commelina virginica), bluegrass (annual bluegrass, Poa annua), quackgrass (Elytrigia repens), mallow (common mallow, Malva sylvestris), buckwheat, wild (wild buckwheat, Polygonum convolvulus), leafy spurge (Euphorbia esula), chickweed (common chickweed, Stellaria media), wild poinsettia (Euphorbia heterophylla), and pigweed (Amaranthus retroflexus) were planted into a blend of loam soil and sand and treated preemergence with test chemicals formulated in a non-phytotoxic solvent mixture which included a surfactant.
(§2) Treated plants and controls were maintained in a greenhouse for 21 days, after which time all species were compared to controls and visually evaluated. Plant response ratings, summarized in Table F, are based on a scale of 0 to 100 where 0 is no effect and 100 is complete control. A dash (-) response means no test result.

crabgrass, naked = type: in vivo, Digitaria nuda
Source text: as §1, §2

sandbur = type: in vivo, Cenchrus echinatus
Source text: as §1, §2

leafy spurge = type: in vivo, Euphorbia esula
Source text: as §1, §2

## N#Cc1cccc(Oc2ncc(F)cn2)c1-n1cc(C(F)(F)F)cn1 [Compound 79, 3-[(5-fluoro-2-pyrimidinyl)oxy]-2-[4-(trifluoromethyl)-1H-pyrazol-1-yl]benzonitrile]
Surinam grass; 16 g ai/ha
  Plant response rating, Surinam Grass: 75
Surinam grass; 31 g ai/ha
  Plant response rating, Surinam Grass: 90
Surinam grass; 62 g ai/ha
  Plant response rating, Surinam Grass: 95
Surinam grass; 125 g ai/ha
  Plant response rating, Surinam Grass: 100
Surinam grass; 250 g ai/ha
  Plant response rating, Surinam Grass: 100
crabgrass, naked; 16 g ai/ha
  Plant response rating, Crabgrass, Naked: 100
crabgrass, naked; 31 g ai/ha
  Plant response rating, Crabgrass, Naked: 100
crabgrass, naked; 62 g ai/ha
  Plant response rating, Crabgrass, Naked: 100
crabgrass, naked; 125 g ai/ha
  Plant response rating, Crabgrass, Naked: 100
crabgrass, naked; 250 g ai/ha
  Plant response rating, Crabgrass, Naked: 100
sandbur; 16 g ai/ha
  Plant response rating, Sandbur: 10
sandbur; 31 g ai/ha
  Plant response rating, Sandbur: 15
sandbur; 62 g ai/ha
  Plant response rating, Sandbur: 95
sandbur; 125 g ai/ha
  Plant response rating, Sandbur: 98
sandbur; 250 g ai/ha
  Plant response rating, Sandbur: 100
Leafy spurge; 16 g ai/ha
  Plant response rating, Leafy Spurge: 95
Leafy spurge; 31 g ai/ha
  Plant response rating, Leafy Spurge: 98
Leafy spurge; 62 g ai/ha
  Plant response rating, Leafy Spurge: 100
Leafy spurge; 125 g ai/ha
  Plant response rating, Leafy Spurge: 100
Leafy spurge; 250 g ai/ha
  Plant response rating, Leafy Spurge: 100
